Biological target: T1, PEPC (phosphoenolpyruvate carboxylase)
T1 construct: native enzyme in desalted (Sephadex G-25) crude leaf extract, not purified; phosphorylation state varies over the day
Assay: NADH oxidation at […] nm, coupled to endogenous MDH in desalted leaf extract
Type: biochemical, Phalaenopsis hybrid cultivar
Settings: daytime leaves (mean of fluctuating values); 2.5 mM PEP, 10 mM NaHCO3, 5 mM MgCl2, pH 7.5, 25 °C; crude desalted extract

## O=C(O)C[C@H](O)C(=O)O [malic acid]
  Ki: 6 ± 3 mM
